# Experimental data reported in ChEMBL document CHEMBL2176932, “De novo cyclic pseudopeptides containing aza-β3-amino acids exhibiting antimicrobial activities” (J Med Chem, 2012).
# Key:
# [1] = Selectivity ratio of MHC for sheep RBC to MIC for Staphylococcus aureus ATCC 25923; assay type: functional
# [2] = Half life in bovine serum; assay type: ADME, cell-free, Bos taurus; settings: cattle
# [3] = Selectivity ratio of HC50 for sheep RBC to MIC for Escherichia coli ATCC 25922; assay type: functional
# [4] = Selectivity ratio of HC50 for sheep RBC to MIC for Staphylococcus aureus ATCC 25923; assay type: functional
# [5] = Toxicity in sheep RBC assessed as hemolytic activity at 100 uM after 1 hr; assay type: cell-based, Ovis aries, Erythrocyte; settings: sheep red blood cells, read-out: Activity
# [6] = Toxicity in sheep RBC assessed as hemolytic activity after 1 hr; assay type: cell-based, Ovis aries, Erythrocyte; settings: sheep red blood cells
# Aeromonas caviae = test: Antibacterial activity against Aeromonas caviae ATCC 15648 after 48 hrs by microtiter broth dilution method; assay type: functional; settings: ATCC 15648, 48 h
# Klebsiella aerogenes = test: Antibacterial activity against Enterobacter aerogenes ATCC 13048 after 48 hrs by microtiter broth dilution method; assay type: functional; settings: ATCC 13048, 48 h
# Klebsiella oxytoca = test: Antibacterial activity against Klebsiella oxytoca CIP 7932 after 48 hrs by microtiter broth dilution method; assay type: functional; settings: CIP 7932, 48 h
# Pseudomonas aeruginosa = test: Antibacterial activity against Pseudomonas aeruginosa ATCC 27853 after 48 hrs by microtiter broth dilution method; assay type: functional; settings: ATCC 27853, 48 h
# Salmonella enterica = test: Antibacterial activity against Salmonella enterica ATCC 13076 after 48 hrs by microtiter broth dilution method; assay type: functional; settings: ATCC 13076, 48 h
# Escherichia coli = test: Antibacterial activity against Escherichia coli ATCC 25922 after 48 hrs by microtiter broth dilution method; assay type: functional; settings: ATCC 25922, 48 h
# Listeria monocytogenes = test: Antibacterial activity against Listeria monocytogenes SOR 100 after 48 hrs by microtiter broth dilution method; assay type: functional; settings: SOR 100, 48 h
# Staphylococcus aureus = test: Antibacterial activity against Staphylococcus aureus ATCC 25923 after 48 hrs by microtiter broth dilution method; assay type: functional; settings: ATCC 25923, 48 h
# Lactococcus garvieae = test: Antibacterial activity against Lactococcus garvieae ATCC 43921 after 48 hrs by microtiter broth dilution method; assay type: functional; settings: ATCC 43921, 48 h
# Micrococcus luteus = test: Antibacterial activity against Micrococcus luteus ATCC 10240 after 48 hrs by microtiter broth dilution method; assay type: functional; settings: ATCC 10240, 48 h
# Streptococcus equinus = test: Antibacterial activity against Streptococcus equinus ATCC 5623 after 48 hrs by microtiter broth dilution method; assay type: functional; settings: ATCC 5623, 48 h
# Enterococcus faecalis = test: Antibacterial activity against Enterococcus faecalis CIP 186 after 48 hrs by microtiter broth dilution method; assay type: functional; settings: CIP 186, 48 h
# Priestia megaterium = test: Antibacterial activity against Bacillus megaterium ATCC 10778 after 48 hrs by microtiter broth dilution method; assay type: functional; settings: ATCC 10778, 48 h
# [7] = Selectivity ratio of MHC for sheep RBC to MIC for Listeria monocytogenes SOR 100; assay type: functional
# [8] = Toxicity in sheep RBC assessed as minimal hemolytic concentration after 1 hr; assay type: cell-based, Ovis aries; settings: erythrocyte
# [9] = Selectivity ratio of MHC for sheep RBC to MIC for Escherichia coli ATCC 25922; assay type: functional
MIC (Aeromonas caviae),MIC (Klebsiella aerogenes),MIC (Klebsiella oxytoca),MIC (Pseudomonas aeruginosa),MIC (Salmonella enterica),MIC (Escherichia coli),MIC (Listeria monocytogenes),MIC (Staphylococcus aureus),MIC (Lactococcus garvieae),MIC (Micrococcus luteus),MIC (Streptococcus equinus),MIC (Enterococcus faecalis),MIC (Priestia megaterium),Structure (SMILES),Selectivity ratio [1],Selectivity ratio [3],Selectivity ratio [4],"hemolysis at 1 h, 100 µM [5]",HC50 at 1 h [6],MHC [8],further results
> 100 µM,12.5 µM,25 µM,50 µM,25 µM,25 µM,6.25 µM,25 µM,25 µM,3.12 µM,6.25 µM,50 µM,1.56 µM,N=C(N)NCCC[C@@H]1NC(=O)CN(CC2CCCCC2)NC(=O)[C@H](Cc2c[nH]c3ccccc23)NC(=O)CN(Cc2ccc(F)cc2)NC(=O)[C@H](Cc2c[nH]c3ccccc23)NC(=O)CN(CCCCN)NC1=O,4,4,4,2.5%,> 100 µM,100 µM,half-life [2]: > 120 min; Selectivity ratio [7]: 16
> 100 µM,25 µM,50 µM,50 µM,50 µM,50 µM,12.5 µM,25 µM,50 µM,3.12 µM,6.25 µM,50 µM,3.12 µM,CC(C)C[C@@H]1NC(=O)CN(Cc2ccc(-c3ccccc3)cc2)NC(=O)[C@H](CCCCN)NC(=O)CN(CCCCN)NC(=O)CN(Cc2ccc(-c3ccccc3)cc2)NC1=O,1,2,4,30%,> 100 µM,25 µM,Selectivity ratio [9]: 0.5
